± gives the expanded uncertainty stated by the source.
Settings: Crystal 1; Chromatography

| SMILES | Normal melting temperature |
| --- | --- |
| O=C(O)[C@H](O)[C@@H](O)C(=O)O [(2R,3R)-2,3-dihydroxybutanedioic acid] | 170.20 ± 1 °C |
| O=C(O)[C@H](O)[C@@H](O)C(=O)O (relative stereo) [(R*,R*)-2,3-dihydroxybutanedioic acid] | 206.00 °C |

Source: the NIST ThermoML archive (doi:10.1021/je300170y)
